Test results reported in patent US20240052305A1, “CHEMICAL INDUCTION METHOD FOR PHOTORECEPTOR NEURON CELLS” (IREGENE THERAPEUTICS LTD, priority 2020, published 2024).
“Also recorded” adds a separate entry of the source.

Key:
[1] = tested on: human pluripotent stem cells; assay: Cyquant cell viability assay during ectoderm induction, long-term culture; type: cell-based; details: for number of cells induced versus concentration: Cyquant test, FIGS. 6c-6d
Protocol: A screening culture system was prepared by using different concentration gradients of insulin or vitamin C while maintaining the optimal concentration of other components. Ectoderm induction was performed according to the method in Example 2.1. The cell viability was quantitatively detected by Cyquant assay to study the effects of insulin or vitamin C on the physiological state of cells during long-term cell culture. A 96-well opaque cell culture plate was coated, and then the cells are inoculated at 5×10^4 cells per well, wherein parallel triplicates were set up (the average of the three groups was calculated as the data). The steps in Example 2.1 were repeated with the culture conditions of 37° C., 5% CO2. Samples were taken at day 1, day 5, day 10 and day 20, respectively, and the cell viability detection was carried out by CyQuant Kit (Invitrogen, X12223) according to the instruction manual, and data were read by SpectraMax i3 Multi-Mode Microplate Reader (VWR, ID3-STD). […] Therefore, in combination with cost factors, the insulin or vitamin C in the basal medium of the present invention was the optimal concentration.

photoreceptor cells = assay: Cyquant cell viability assay during induction of photoreceptor cells; type: cell-based, human; details: Cyquant test, FIGS. 6e-6g
From the text: The Cyquant test was also used to detect the effect of progesterone, putrescine and Optiferrin on cell viability, so as to study the effects of different concentrations of progesterone, putrescine and Optiferrin on the physiological state of cells during the induction of photoreceptor cells.

[2] = tested on: photoreceptor neuron cells; assay: Screening test of vitamin B12 concentration (Q-PCR of photoreceptor neuron cells); type: cell-based, human
Protocol: The screening test of vitamin B12 concentration was carried out with reference to Example 2.3, and the expression difference of photoreceptor neuron cells obtained by using different concentrations of vitamin B12 was compared. See Table 2 and Table 4 for the details of primers used. […] Therefore, the concentration of vitamin B12 used in the present invention was the optimal concentration.

ectoderm cells [3] = assay: Differentiation of ectoderm cells into photoreceptor neuron cells with AM580 (morphology, Q-PCR, immunofluorescence); type: cell-based, human
Protocol: The ectoderm cells obtained by the NouvNeu system in Example 2 were subjected to directed differentiation in NouvNeu medium. For differentiation, a 6-well culture plate was coated by 50 ug/ml poly-lysine (SIGMA, P6407), incubated in an incubator at 37° C. for more than 3 hours until cells were seeded.
The photoreceptor neuron cell induction medium of the present invention was obtained by supplementing the NouvNeu-basal base medium with 55 nM-25 uM LY2157299 (with an optimal concentration of 7.5 uM) (preferably 100 nM, 300 nM, 500 nM, 700 nM, 900 nM, 1 uM, 2.5 uM, 5 uM, 7.5 uM, 10 uM, 12.5 uM, 15 uM, 17.5 uM, 20 uM or 22 uM) and 0.05-0.95 uM AM580 (Selleck) (with an optimal concentration of 0.5 uM) (preferably 0.08 uM, 0.09 uM, 0.1 uM, 0.2 uM, 0.3 uM, 0.5 uM, 0.6 uM, 0.7 uM, 0.8 uM, 0.9 uM). The cells were cultured until photoreceptor neuron cell were formed. A control experiment was performed by adding 0.5 uM retinoic acid to the NouvNeu medium, hereinafter referred to as RA.
The screening test of AM580 concentration was carried out with reference to Example 2.3, and the expression difference of photoreceptor neuron cells obtained by using different concentrations of AM580 in the AM580 induction method and the LSB induction method was compared. See Table 2 and Table 4 for the details of primers used. […] In combination with the effect of AM580 on the expression of photoreceptor neuron-specific genes shown in FIG. 4, it could be concluded that the concentrations of AM580 used in the present invention are within the range of optimal concentration.
The medium was replaced with fresh medium every 3 days until day 21. The conditions for culture were at 37° C., 5% CO2 (Panasonic, MCO-18AC). After the induction was completed, the samples in experimental group and control group were respectively identified by immunofluorescence staining as follows: cells were fixed with 4% paraformaldehyde at room temperature for 40 minutes, washed twice with DPBS buffer; then permeabilized with 0.1% Triton X-100 for 5 minutes, washed twice with DPBS buffer; then incubated overnight at 4° C. with DPBS buffer containing 10% horse serum and 0.1% Triton X-100; added with a primary antibody diluted in DPBS buffer containing 2% horse serum and 0.1% Triton X-100, incubated at 37° C. for two hours, and washed three times with DPBS buffer, added with a secondary antibody diluted in DPBS buffer containing 2% horse serum and 0.1% Triton X-100, and then photographed.
Transcription changes of different marker genes during induction from ectoderm cells to photoreceptor neuron cells were detected by Q-PCR. The photoreceptor cells obtained by using the present invention and different concentrations of AM580, and the photoreceptor cells obtained by the RA control induction method were respectively extracted with RNeasy Mini or Micro Kit (QIAGEN) for total RNA, and cDNA was synthesized by […] RNA via SuperScript III First-Strand Synthesis System (Invitrogen). SYBR Premix Ex Taq (TaKaRa) and Thermal Cycler Dice Real Time System (TaKaRa) were used for labeling and reaction of Quantitative PCR, and beta-Actin was used as internal control. All data were analyzed by delta-Ct method. Three replicates were used for each group of experiments, and ANOVA was performed.

[4] = tested on: human pluripotent stem cells; assay: Chemical induction of ectoderm cells from pluripotent stem cells with different concentrations of LY2157299 (morphology, Q-PCR); type: cell-based
Protocol: The ectoderm cell induction medium of the present invention was obtained by supplementing the NouvNeu-basal base medium with 55 nM-25 uM LY2157299 (Selleck) (with an optimal concentration of 7.5 uM) (preferably 100 nM, 300 nM, 500 nM, 700 nM, 900 nM, 1 uM, 2.5 uM, 5 uM, 7.5 uM, 10 uM, 12.5 uM, 15 uM, 17.5 uM, 20 uM or 22 uM). An induction method using said ectoderm cell induction medium was hereinafter referred to as a LY induction method.
Ectoderm cells were derived from human pluripotent stem cells, including embryogenic pluripotent stem cells, such as H9 cell line and human induced pluripotent stem cells. Human induced pluripotent stem cells were obtained by reprogramming from CD34+ cells according to “Reprogrammed culture medium and culture method of reprogrammed induced multipotential stem cell” (ZL 201910050800.7). In the present invention, “induced pluripotent stem cells” and “pluripotent stem cells” were used interchangeably.
During the induction of ectoderm cells, a 6-well culture plate was coated by using 50 ug/ml polylysine (SIGMA, P6407), and incubated in an incubator at 37° C. for more than 3 hours; then further coated by 5 ug/ml laminin (Laminin, I2020, SIGMA ALDRICH), and incubated in an incubator at 37° C. for more than 3 hours after plating. After the pluripotent stem cells reached 70% coverage, they were digested with EDTA at 37° C. for 5 min, and the cell digestion was terminated with DMEM. After washing and centrifugation, the cells were re-plated in the T25 culture plate at 2×10^5 cells per flask. The neural stem cell induction medium of the present invention was used for induction, and replaced with fresh induction medium every day until lamellar ectoderm cells were formed.
The effect of different concentrations of LY2157299 on the formation of ectoderm cells was detected by Q-PCR. The ectoderm cells obtained from the induced pluripotent stem cells in Example 2 by using different concentrations of LY2157299 in the LY induction method and LSB induction method were respectively extracted with RNeasy Mini or Micro Kit (QIAGEN) for total RNA, and cDNA was synthesized by […] RNA via SuperScript III First-Strand Synthesis System (Invitrogen). SYBR Premix Ex Taq (TaKaRa) and Thermal Cycler Dice Real Time System (TaKaRa) were used for labeling and reaction by Quantitative PCR, and beta-Actin was used as internal control. All data were analyzed by delta-Ct method. Triplicates were used for each group of experiments, and ANOVA was performed.

ectoderm cells [5] = assay: Differentiation of the ectoderm cells into neural stem cells (neural rosettes, immunofluorescence, Q-PCR); type: cell-based, human
Protocol: Ectoderm cells could be further cultured to form neural stem cells. In order to identify this ability of ectoderm cells, the ectoderm cells obtained in Example 2.1 were further cultured in vitro by using a NouvNeu-basal base medium supplemented with 7.5 uM LY2157299 and 0.5-20 uM JW55 (with an optimal concentration of 5 uM) until a neural rosette-like structure was formed. The LSB induction method was used as a control. […]
Transcription changes of different marker genes during induction from ectoderm cells to neural stem cells were detected by Q-PCR. […] SYBR Premix Ex Taq (TaKaRa) and Thermal Cycler Dice Real Time System (TaKaRa) were used for labeling and reaction by Quantitative PCR, and beta-Actin was used as internal control. All data were analyzed by delta-Ct method. […]

[6] = Osmotic pressure of the culture system by freezing point osmometer; type: physicochemical; design: osmotic pressure of the culture system: dose or concentration left out as unconfirmed
Protocol: A screening culture system was prepared by using different concentration gradients of sodium chloride while maintaining the optimal concentration of other components. The effect of different concentrations of sodium chloride on the osmotic pressure of culture system was detected by using an automatic freezing point osmometer (FM-8P, Shanghai Medical University Instrument Co., Ltd.), and specific operations were performed according to the product manual (FM-8P, Shanghai Medical University Instrument Co., Ltd.).

Molecule: insulin: component of the NouvNeu-basal base medium
- number of cells induced versus concentration [1]: positively correlated
- number of cells compared with the optimal concentration ([1]; high concentration): not significantly different

Molecule: NCCCCN [putrescine]
- cell proliferation rate versus concentration (photoreceptor cells): positively correlated

Molecule: vitamin B12
- photoreceptor non-specific marker PAX6 versus concentration ([2]; Q-PCR, FIG. 6b): positively correlated
- relative expression of PAX6 ([2]; concentration too high): decrease in the relative expression of PAX6

Molecule: CC1(C)CCC(C)(C)c2cc(C(=O)Nc3ccc(C(=O)O)cc3)ccc21 [AM580]
- marker PAX6 versus concentration (ectoderm cells [3]; Q-PCR, FIG. 3f): positively correlated
- apoptotic markers versus concentration (ectoderm cells [3]; Q-PCR, FIG. 3g): positively correlated
- expression of photoreceptor cell-specific marker genes (ectoderm cells [3]; Q-PCR, compared with RA control, FIG. 4): could induce the expression of multiple photoreceptor cell-specific marker genes, which was not significantly lower than that of the RA control
- morphology of differentiated cells (ectoderm cells [3]; appropriate concentration, FIG. 3d): uniformly differentiated photoreceptor cells with short axons
- apoptosis (ectoderm cells [3]; concentration too high): lead to apoptosis
- morphology of differentiated cells (ectoderm cells [3]; excessively high concentration, FIG. 3e): results in stress in differentiated cells
- protein expression of photoreceptor markers (ectoderm cells [3]; fluorescent immunoassay, FIG. 5): same protein expression patterns with that in the RA control group
- optimal concentration of AM580 (ectoderm cells [3]; induction of photoreceptor cells, screening of different concentrations (FIG. 3)): 0.5 µM
- morphology of differentiated cells (ectoderm cells [3]; low concentration, FIG. 3c): differentiation into mixed cells including cortical neurons

Molecule: CC(=O)[C@H]1CC[C@H]2[C@@H]3CCC4=CC(=O)CC[C@]4(C)[C@H]3CC[C@]12C [progesterone]
- cell proliferation rate versus concentration (photoreceptor cells): positively correlated

Molecule: Cc1cccc(-c2nn3c(c2-c2ccnc4ccc(C(N)=O)cc24)CCC3)n1 [LY2157299, 4-(2-(6-methylpyridin-2-yl)-5,6-dihydro-4H-pyrrolo[1,2-b]pyrazol-3-yl) quinoline-6-carboxamide]
- ectoderm markers versus concentration ([4]; Q-PCR, FIG. 2f): positively correlated
- apoptotic markers versus concentration ([4]; Q-PCR, FIG. 2g): positively correlated
- formation of ectoderm cells (morphology) ([4]; appropriate concentration, FIG. 2d): uniformly differentiated ectoderm cells
- formation of ectoderm cells (morphology) ([4]; excessively high concentration, FIG. 2e): promote the differentiation of ectoderm cells into neural cells
- cell apoptosis ([4]; high concentration): induced cell apoptosis
- optimal concentration of LY2157299 ([4]; induction of ectoderm cells, screening of different concentrations (FIG. 2)): 7.5 µM
- formation of ectoderm cells (morphology) ([4]; low concentration, FIG. 2c): differentiation into mixed cell including ectodermal cells; also recorded: the ectoderm could not be completely formed
- expression of neural stem cell markers compared with the control method (ectoderm cells [5]; Q-PCR, FIGS. 1e-1f): slightly increase the expression of neural stem cell markers
- neural stem cell markers after formation of neural rosettes (ectoderm cells [5]; immunofluorescence staining, FIGS. 1a-1d): can express neural stem cell markers Pax6 and Nestin

Molecule: Optiferrin: component of the NouvNeu-basal base medium (SIGMA)
- cell proliferation rate versus concentration (photoreceptor cells): positively correlated

Molecule: [Cl-].[Na+] [sodium chloride]
- osmotic pressure of the culture system versus concentration ([6]; concentration gradients, FIG. 6a): increased linearly
- osmotic pressure of the culture system ([6]; sodium chloride concentration): > 320 mOsm/kg

Molecule: O=C1O[C@H]([C@@H](O)CO)C(O)=C1O [vitamin C, L-ascorbic acid]
- number of cells induced versus concentration [1]: positively correlated
- number of cells compared with the optimal concentration ([1]; high concentration): not significantly different
- state of cells in the late stage of induction ([1]; high concentration): caused the cells to shed in pieces
